Laboratory results: ChEMBL document CHEMBL4177722, “Small molecule inhibitors of anthrax edema factor” (Bioorg Med Chem Lett, 2018)

Experiments:
[1] = target: T1, Calmodulin-sensitive adenylate cyclase (Bacillus anthracis) (UniProt P40136); experiment: Inactivation of Bacillus anthracis edema factor assessed as inactivation rate constant in presence of CaM incubated for 10 to 240 mins by EnzChek pyrophosphate assay
T1 sequence (whole entry): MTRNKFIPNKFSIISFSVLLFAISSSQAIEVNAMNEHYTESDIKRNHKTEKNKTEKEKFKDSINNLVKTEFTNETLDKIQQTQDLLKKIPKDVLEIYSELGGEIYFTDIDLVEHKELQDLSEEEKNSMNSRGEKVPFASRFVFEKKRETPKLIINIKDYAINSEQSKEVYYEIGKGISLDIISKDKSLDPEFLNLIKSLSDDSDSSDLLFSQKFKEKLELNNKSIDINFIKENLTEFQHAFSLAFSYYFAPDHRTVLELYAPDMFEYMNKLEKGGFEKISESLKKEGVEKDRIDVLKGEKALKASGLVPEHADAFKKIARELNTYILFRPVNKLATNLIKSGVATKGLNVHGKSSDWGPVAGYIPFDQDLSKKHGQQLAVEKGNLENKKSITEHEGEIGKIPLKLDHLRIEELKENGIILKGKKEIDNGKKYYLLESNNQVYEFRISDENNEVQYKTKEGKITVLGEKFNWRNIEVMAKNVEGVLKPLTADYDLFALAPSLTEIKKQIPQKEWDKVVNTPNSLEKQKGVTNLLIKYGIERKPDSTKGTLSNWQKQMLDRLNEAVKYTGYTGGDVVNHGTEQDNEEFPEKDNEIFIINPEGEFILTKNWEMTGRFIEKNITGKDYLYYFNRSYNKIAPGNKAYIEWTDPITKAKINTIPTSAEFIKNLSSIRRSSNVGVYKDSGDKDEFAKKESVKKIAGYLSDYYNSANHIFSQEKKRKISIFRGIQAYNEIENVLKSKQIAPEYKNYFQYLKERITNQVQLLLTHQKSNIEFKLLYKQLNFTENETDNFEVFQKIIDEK

[2] = target: T1, Calmodulin-sensitive adenylate cyclase (Bacillus anthracis); experiment: Inactivation of Bacillus anthracis edema factor assessed as Kinact/Ki ratio in presence of CaM incubated for 10 to 240 mins by EnzChek pyrophosphate assay
[3] = target: T1, Calmodulin-sensitive adenylate cyclase (Bacillus anthracis); experiment: Inactivation of Bacillus anthracis edema factor assessed as Kinact/Ki ratio in presence of CaM incubated for 10 to 240 mins by EnzChek pyrophosphate assay relative to FSBA
[4] = target: T2, Calcium/calmodulin-dependent protein kinase type IV (Homo sapiens) (UniProt Q16566); experiment: Inhibition of human CAMK4 at 10 uM by ADP-Glo kinase assay
T2 sequence (whole entry): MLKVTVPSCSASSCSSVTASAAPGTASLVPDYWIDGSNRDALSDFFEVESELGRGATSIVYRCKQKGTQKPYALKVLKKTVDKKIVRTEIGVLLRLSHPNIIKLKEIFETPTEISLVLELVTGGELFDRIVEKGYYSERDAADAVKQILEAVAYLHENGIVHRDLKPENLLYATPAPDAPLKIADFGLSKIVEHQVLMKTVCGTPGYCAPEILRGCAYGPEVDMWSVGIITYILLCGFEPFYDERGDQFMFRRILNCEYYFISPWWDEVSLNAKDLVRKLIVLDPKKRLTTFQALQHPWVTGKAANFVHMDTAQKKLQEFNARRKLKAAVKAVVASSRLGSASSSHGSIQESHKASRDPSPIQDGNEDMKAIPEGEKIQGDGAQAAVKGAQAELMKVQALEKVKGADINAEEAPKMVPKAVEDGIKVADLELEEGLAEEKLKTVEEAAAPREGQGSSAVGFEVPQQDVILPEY

[5] = target: T3, Serine/threonine-protein kinase Chk1 (Homo sapiens) (UniProt O14757); experiment: Inhibition of human CHK1 at 10 uM by ADP-Glo kinase assay
T3 sequence (whole entry): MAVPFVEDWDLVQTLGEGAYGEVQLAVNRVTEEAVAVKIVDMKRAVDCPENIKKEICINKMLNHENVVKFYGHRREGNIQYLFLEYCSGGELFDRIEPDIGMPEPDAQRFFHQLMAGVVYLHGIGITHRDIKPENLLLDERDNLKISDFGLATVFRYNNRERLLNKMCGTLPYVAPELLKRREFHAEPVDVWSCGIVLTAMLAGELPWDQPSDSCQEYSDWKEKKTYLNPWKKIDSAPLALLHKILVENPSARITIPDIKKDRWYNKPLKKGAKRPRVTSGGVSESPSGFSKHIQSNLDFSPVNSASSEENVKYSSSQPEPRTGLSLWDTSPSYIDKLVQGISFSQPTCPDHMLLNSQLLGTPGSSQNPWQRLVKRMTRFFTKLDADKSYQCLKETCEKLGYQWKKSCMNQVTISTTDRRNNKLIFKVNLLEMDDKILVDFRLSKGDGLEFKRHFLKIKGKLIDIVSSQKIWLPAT

[6] = target: Death-associated protein kinase 1 (Homo sapiens) (UniProt P53355); experiment: Inhibition of human DAPK1 at 10 uM by ADP-Glo kinase assay
[7] = target: T4, Inhibitor of nuclear factor kappa-B kinase subunit beta (Homo sapiens) (UniProt O14920); experiment: Inhibition of human IKKbeta at 10 uM by ADP-Glo kinase assay
T4 sequence (whole entry): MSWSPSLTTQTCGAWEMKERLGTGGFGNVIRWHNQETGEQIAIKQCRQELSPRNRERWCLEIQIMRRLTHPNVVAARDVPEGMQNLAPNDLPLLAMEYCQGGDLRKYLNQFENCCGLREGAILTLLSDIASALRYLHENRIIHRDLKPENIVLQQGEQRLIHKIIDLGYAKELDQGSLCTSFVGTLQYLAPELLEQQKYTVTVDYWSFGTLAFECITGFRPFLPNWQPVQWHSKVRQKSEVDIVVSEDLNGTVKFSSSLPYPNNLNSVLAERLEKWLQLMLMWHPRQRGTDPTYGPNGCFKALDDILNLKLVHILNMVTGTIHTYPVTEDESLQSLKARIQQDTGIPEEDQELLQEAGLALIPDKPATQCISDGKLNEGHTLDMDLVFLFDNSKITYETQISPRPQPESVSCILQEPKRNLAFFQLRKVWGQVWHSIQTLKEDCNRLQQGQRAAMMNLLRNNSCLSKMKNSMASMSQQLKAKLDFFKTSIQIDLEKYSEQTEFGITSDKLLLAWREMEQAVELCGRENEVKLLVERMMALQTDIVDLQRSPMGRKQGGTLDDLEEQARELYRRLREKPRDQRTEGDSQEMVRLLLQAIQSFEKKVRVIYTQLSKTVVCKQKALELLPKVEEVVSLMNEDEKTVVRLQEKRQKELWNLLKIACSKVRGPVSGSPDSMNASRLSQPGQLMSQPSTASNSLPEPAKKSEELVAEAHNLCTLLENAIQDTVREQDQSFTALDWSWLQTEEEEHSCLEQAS

[8] = target: Misshapen-like kinase 1 (Homo sapiens) (UniProt Q8N4C8); experiment: Inhibition of human MINK at 10 uM by ADP-Glo kinase assay
[9] = target: Serine/threonine-protein kinase PAK 1 (Homo sapiens) (UniProt Q13153); experiment: Inhibition of human PAK1 at 10 uM by ADP-Glo kinase assay
Serine/threonine-protein kinase PAK 1 (Homo sapiens), sequence (Q13153 whole entry): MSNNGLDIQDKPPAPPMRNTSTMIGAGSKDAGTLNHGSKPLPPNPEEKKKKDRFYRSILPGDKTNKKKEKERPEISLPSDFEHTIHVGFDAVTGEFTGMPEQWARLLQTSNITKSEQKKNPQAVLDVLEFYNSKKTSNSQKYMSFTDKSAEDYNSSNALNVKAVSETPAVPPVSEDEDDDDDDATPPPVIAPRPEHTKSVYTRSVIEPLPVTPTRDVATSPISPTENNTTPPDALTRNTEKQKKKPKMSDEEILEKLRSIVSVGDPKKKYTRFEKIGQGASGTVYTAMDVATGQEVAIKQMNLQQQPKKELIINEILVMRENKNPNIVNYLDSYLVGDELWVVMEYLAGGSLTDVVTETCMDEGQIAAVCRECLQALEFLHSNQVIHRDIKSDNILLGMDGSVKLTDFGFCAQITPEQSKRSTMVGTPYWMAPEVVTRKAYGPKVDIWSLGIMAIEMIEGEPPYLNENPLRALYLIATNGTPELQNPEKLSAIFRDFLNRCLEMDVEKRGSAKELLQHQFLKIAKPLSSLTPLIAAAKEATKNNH

Death-associated protein kinase 1 (Homo sapiens), sequence (P53355 whole entry, looked up): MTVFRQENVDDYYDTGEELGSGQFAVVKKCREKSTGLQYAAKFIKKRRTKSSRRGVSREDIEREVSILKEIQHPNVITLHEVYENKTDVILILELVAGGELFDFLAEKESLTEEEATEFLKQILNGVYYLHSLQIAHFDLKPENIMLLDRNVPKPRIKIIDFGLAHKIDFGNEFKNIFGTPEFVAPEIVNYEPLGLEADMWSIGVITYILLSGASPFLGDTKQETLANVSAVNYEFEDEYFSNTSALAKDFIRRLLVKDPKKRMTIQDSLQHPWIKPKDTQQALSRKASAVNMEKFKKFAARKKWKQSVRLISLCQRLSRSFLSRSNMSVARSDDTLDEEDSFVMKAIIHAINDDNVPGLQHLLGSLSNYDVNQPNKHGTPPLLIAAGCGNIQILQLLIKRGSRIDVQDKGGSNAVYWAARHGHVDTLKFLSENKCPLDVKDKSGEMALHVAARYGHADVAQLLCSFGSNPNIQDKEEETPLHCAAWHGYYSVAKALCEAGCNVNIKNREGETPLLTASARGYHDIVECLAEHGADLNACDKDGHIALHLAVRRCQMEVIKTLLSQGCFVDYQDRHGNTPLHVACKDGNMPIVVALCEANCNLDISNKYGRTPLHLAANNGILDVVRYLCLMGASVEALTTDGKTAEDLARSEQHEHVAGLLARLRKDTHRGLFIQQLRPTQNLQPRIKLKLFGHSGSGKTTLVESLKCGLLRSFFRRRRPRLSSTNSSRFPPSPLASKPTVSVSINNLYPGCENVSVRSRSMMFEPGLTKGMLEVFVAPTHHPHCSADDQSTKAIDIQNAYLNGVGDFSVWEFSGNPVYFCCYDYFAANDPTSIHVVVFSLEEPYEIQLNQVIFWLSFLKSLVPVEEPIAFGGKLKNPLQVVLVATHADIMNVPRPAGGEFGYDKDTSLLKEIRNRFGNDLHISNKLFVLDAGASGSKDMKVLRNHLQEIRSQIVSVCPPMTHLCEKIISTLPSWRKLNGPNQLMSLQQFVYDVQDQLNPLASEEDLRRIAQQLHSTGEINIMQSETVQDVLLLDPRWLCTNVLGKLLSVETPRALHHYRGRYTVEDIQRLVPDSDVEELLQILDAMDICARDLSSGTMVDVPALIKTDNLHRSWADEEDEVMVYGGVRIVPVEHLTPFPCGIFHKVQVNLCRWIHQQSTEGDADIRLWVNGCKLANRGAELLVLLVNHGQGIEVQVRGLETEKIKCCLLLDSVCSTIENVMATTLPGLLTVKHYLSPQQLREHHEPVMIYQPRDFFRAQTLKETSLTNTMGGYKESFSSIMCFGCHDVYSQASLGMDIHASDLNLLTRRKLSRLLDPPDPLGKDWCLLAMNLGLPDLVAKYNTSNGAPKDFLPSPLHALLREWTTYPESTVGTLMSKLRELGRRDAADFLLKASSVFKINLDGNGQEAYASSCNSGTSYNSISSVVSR
Misshapen-like kinase 1 (Homo sapiens), sequence (Q8N4C8 whole entry, looked up): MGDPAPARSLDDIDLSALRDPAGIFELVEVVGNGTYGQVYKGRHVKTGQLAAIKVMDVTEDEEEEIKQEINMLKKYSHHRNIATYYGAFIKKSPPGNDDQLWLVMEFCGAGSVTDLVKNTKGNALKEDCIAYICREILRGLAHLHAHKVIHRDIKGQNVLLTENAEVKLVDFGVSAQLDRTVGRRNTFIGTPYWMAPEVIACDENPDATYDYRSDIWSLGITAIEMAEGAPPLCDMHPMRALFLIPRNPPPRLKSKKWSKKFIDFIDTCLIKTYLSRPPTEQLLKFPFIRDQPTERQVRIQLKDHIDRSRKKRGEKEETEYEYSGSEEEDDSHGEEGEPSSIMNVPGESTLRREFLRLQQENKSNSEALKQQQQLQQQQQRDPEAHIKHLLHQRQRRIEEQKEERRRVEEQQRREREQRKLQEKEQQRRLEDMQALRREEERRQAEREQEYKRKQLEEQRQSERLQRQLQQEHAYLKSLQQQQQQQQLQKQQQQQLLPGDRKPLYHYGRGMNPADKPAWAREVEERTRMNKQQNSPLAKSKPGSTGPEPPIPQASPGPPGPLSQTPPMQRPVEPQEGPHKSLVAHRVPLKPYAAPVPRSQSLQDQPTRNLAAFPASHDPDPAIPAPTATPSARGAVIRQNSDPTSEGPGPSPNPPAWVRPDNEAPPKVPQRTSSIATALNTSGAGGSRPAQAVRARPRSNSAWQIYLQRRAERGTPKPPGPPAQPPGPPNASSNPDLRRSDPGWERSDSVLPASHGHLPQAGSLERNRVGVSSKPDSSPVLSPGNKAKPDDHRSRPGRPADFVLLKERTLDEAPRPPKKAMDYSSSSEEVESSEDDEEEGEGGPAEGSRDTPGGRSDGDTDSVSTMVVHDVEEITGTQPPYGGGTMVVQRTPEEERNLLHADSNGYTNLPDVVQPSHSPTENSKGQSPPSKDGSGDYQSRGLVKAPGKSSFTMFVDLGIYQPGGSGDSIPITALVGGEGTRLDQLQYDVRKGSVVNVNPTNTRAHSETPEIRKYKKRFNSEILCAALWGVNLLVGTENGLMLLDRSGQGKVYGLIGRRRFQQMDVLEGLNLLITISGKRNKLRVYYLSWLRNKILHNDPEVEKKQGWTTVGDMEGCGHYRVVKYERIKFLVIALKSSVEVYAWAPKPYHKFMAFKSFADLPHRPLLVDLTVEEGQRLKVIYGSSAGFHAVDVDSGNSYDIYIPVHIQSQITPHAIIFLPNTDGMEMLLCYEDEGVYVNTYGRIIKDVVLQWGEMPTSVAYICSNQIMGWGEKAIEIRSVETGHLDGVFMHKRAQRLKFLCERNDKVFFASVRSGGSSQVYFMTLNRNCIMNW

Structure (SMILES) | Kinact [1] [min⁻¹] | Ratio [2] | Ratio [3] | inhibition [4] [%] | inhibition [5] [%] | inhibition [6] [%] | inhibition [7] [%] | inhibition [8] [%] | inhibition [9] [%]
Nc1ncnc2c1ccn2C1CCN(C(=O)c2ccc(S(=O)(=O)F)cc2)CC1 | 0.282 | 14200 | 1050 | 7 | 18 | 4 | 0 | 5 | 0
Cc1nc(N)c2ccn(C3CCN(C(=O)c4ccc(S(=O)(=O)F)cc4)CC3)c2n1 | 0.129 | 3140 | 234 | 27 | 97 | 13 | 0 | 17 | 0
